Results on 78 compounds are retold here after PubChem BioAssay AID1645861 (Buhrlage Lab, Dana-Farber Cancer Institute and Novartis …, 2021).

For orientation: IC50 means the concentration at which inhibition is half-maximal.

Active and inactive are the calls of the source.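 Rule for the calls: active = compounds whose peak USP7 inhibition across the dose series reached 30% or more; inactive = the rest.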

The target in the experiment is Ubiquitin carboxyl-terminal hydrolase 7 (Homo sapiens) (UniProt Q93009). The experiment in a line: Ubiquitin-specific protease 7 DUB inhibitors, concentration-effect, biochemical, validation of primary hits (AID 1645861). The conditions noted are these: purified USP7, Ub-rhodamine cleavage fluorescence, 60 min.
Sequence of Ubiquitin carboxyl-terminal hydrolase 7 (Homo sapiens) (Q93009 whole entry, looked up): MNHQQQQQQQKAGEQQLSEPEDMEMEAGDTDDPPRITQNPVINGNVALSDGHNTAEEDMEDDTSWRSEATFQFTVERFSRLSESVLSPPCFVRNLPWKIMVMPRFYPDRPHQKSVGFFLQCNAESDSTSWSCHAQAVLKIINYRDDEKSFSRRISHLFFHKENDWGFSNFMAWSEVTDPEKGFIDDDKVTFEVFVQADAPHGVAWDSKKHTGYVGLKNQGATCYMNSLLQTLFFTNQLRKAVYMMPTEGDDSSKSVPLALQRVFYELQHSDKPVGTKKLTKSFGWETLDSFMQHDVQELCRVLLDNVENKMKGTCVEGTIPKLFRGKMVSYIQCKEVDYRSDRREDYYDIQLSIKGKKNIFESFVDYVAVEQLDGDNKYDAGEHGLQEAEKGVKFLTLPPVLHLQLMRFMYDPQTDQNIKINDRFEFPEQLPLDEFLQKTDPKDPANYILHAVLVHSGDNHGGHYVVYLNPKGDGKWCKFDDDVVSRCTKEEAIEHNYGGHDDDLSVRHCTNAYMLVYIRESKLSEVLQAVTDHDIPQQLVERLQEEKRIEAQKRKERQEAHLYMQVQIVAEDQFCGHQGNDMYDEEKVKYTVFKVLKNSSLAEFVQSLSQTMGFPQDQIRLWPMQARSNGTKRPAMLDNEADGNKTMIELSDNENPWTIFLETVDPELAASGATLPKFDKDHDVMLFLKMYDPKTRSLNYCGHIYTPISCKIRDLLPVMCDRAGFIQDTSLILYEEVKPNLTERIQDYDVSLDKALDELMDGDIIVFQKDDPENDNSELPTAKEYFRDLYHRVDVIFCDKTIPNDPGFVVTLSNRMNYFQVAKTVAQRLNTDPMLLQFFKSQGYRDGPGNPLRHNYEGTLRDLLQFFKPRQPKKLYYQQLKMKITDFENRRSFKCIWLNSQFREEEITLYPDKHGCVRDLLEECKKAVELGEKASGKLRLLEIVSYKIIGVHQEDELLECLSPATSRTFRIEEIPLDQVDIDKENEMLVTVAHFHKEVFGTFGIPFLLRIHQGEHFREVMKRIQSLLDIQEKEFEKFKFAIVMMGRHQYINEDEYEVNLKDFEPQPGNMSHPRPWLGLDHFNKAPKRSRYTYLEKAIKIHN
For the compound `NS(=O)(=O)c1ccc(CNC(=O)c2ccc(Cl)c(S(=O)(=O)Nc3cc(Cl)ccc3Cl)c2)cc1`, the IC50 is > 50 µM (inactive).

With `Cc1ccc(NCc2cc3c(-c4cccc(F)c4)nn(-c4ccccc4)c3[nH]c2=O)cc1C`, the IC50 is 9 µM.

Consider `CCCC(O)CCCCCCCc1cc(O)cc(O)c1C(=O)OC(CCC)CCCCCCCc1cc(O)cc(O)c1` (stereo not drawn), for which the IC50 was > 50 µM (inactive).

Regarding `COc1cc(-c2ccccc2)c(O)c(O)c1-c1ccccc1`, the IC50 was 22.1 µM.

In the case of `O=C(CSc1nc2cc(C(F)(F)F)ccc2s1)NCC(=O)c1ccccc1`, the IC50 is 35.8 µM.

As for `Cc1ccc(NC(=O)Nc2ccc(C)n(CC(=O)Nc3ccc(C)c(C)c3)c2=O)cc1`, the IC50 is 38.8 µM.

As to `CCCCCCCCCCCCCCCc1cc(O)cc(O)c1C(=O)O`, the IC50 is 30.7 µM.

As for `O=C(Cn1cccc(-c2nc(-c3ccccc3)no2)c1=O)Nc1ccccc1F`, the IC50 was > 50 µM (inactive).

`CCCCCCCCCCCC1=C(O)C(=O)C=C(O)C1=O`: the IC50 was 14.7 µM.

Regarding `Cn1c(=O)c2nc(-c3ccc(Cl)cc3)nnc2n(C)c1=O`, the IC50 is > 50 µM (inactive).

Consider `O=C(Nc1ccccc1)[C@@H]1[C@@H]2C(=O)N(c3ccc([N+](=O)[O-])cc3)C(=O)[C@@H]2[C@H]2c3ccccc3C=CN12`, for which the IC50 is > 50 µM (inactive).

In the case of `Cc1ccc2[nH]c(=O)c(-c3nc4ccccn4c3NCc3ccccc3)cc2c1`, the IC50 is > 50 µM (inactive).

Consider `CC(C)=CCC/C(C)=C/COc1ccc(/C=C2\C(=O)N(O)[C@@H](C)C(=O)N2O)cc1`, for which the IC50 was > 50 µM (inactive).

For `O=C(/C=C/c1ccc(F)cc1)N1CCc2ccccc2C1`, the IC50 was > 50 µM (inactive).

As for `CC(=O)N1CCc2cc(S(=O)(=O)NC(Cc3ccccc3)C(=O)Nc3cccc(Cl)c3C)ccc21` (stereo not drawn), the IC50 was > 50 µM (inactive).

`COc1ccc(NC(=O)Cn2cc(C(=O)c3ccccc3)c(=O)c3cc(Cl)ccc32)cc1OC`: the IC50 is > 50 µM (inactive).

Regarding `C[C@@H]1OC2=C(C(=O)c3cccc(O)c3C2=O)[C@H](O)[C@@H]1O`, the IC50 is > 50 µM (inactive).

For the compound `Cc1ccc(Nc2nc(O)c(CC(=O)Nc3cccc(Cl)c3C)s2)cc1C`, the IC50 is > 50 µM (inactive).

As to `O=c1[nH]c2ccc(S(=O)(=O)Nc3ccc(O)c4ccccc34)cc2[nH]1`, the IC50 was > 50 µM (inactive).

Turning to `Cc1ccc(NC(=O)CSc2nnc(-c3n[nH]c4c3CCC4)n2N)cc1C`, the IC50 was > 50 µM (inactive).

Regarding `CCc1nc(SCC(=O)Nc2ccc(Cl)c(Cl)c2)c2oc3ccccc3c2n1`, the IC50 was > 50 µM (inactive).

On to `COc1cccc(-n2cnc3cc(C(=O)NCCc4ccccc4)ccc3c2=O)c1`, for which the IC50 is > 50 µM (inactive).

Turning to `COC1=C(C2=C(OC)C(=O)c3cc4c(c(O)c3C2=O)C(=O)OC(C)C4)C(=O)c2c(cc3c(c2O)C(=O)OC(C)C3)C1=O` (stereo not drawn), the IC50 was 44.7 µM.

For the compound `O=C(CCCn1c(=O)[nH]c2cc(Cl)ccc2c1=O)NCCCN1CCCC1=O`, the IC50 was > 50 µM (inactive).

Regarding `COc1ccc(C2/C(=C(\O)c3ccccc3)C(=O)C(=O)N2c2nc3ccc(F)cc3s2)cc1` (stereo not drawn), the IC50 is 23.7 µM.

For the compound `Cc1ccc(-c2nc(NC(=O)COc3ccc(Cl)cc3)no2)cc1`, the IC50 was 22.5 µM.

For the compound `CCOc1ccc(-c2nnc(-c3cnc4onc(C5CCCC5)c4c3)o2)cc1`, the IC50 was > 50 µM (inactive).

In the case of `CC(C)CCCCCCCCCCC(=O)N(C)[C@H](CO)C(=O)N[C@H](C)C(=O)NCC(=O)N(C)C1C(=O)N[C@@H](C)C(=O)NC(C(=O)O)Cc2ccc(O)c(c2)-c2cc1ccc2O` (stereo partly drawn), the IC50 is > 50 µM (inactive).

Consider `O=C(Nc1nccs1)C1c2ccccc2C(=O)N(Cc2ccccc2)C12CCCC2` (stereo not drawn), for which the IC50 was > 50 µM (inactive).

For `CC1OC2CC(O)C1(O)C1=C2C(O)=C(C(N)=O)C(=N)C1=O` (stereo not drawn), the IC50 is > 50 µM (inactive).

Turning to `O=C(O)C1C(C(=O)Nc2ccccc2)C2(c3ccccc3)C(=O)C1(c1ccccc1)C(c1ccccc1)=C2c1ccccc1` (stereo not drawn), the IC50 was 15.8 µM.

In the case of `O=C(CCCC(=O)N(c1ccc2c(c1)OCCO2)C(C(=O)NC1CCCCC1)c1ccc(F)cc1)Nc1ccccn1` (stereo not drawn), the IC50 is > 50 µM (inactive).

As to `Cc1ccc(Cn2cc(C(=O)Nc3ccccc3C(N)=O)ccc2=O)cc1`, the IC50 is > 50 µM (inactive).

Consider `O=C(Cn1c(=O)c2sccc2n(CC(=O)OCc2ccccc2)c1=O)NCc1ccccc1Cl`, for which the IC50 is > 50 µM (inactive).

Turning to `COc1ccc(C)cc1NC(=O)C1CC(=O)Nc2nc3ccccc3n21` (stereo not drawn), the IC50 was > 50 µM (inactive).

In the case of `O=C(NC1(O)C(=O)c2ccccc2C1=O)c1ccc(-c2csnn2)cc1`, the IC50 was > 50 µM (inactive).

`Cc1cc(OCC(=O)Nc2ccccc2C(=O)Nc2ccccc2)ccc1Cl`: the IC50 is > 50 µM (inactive).

Turning to `Cc1nc(-c2ccc(Cl)cc2)oc1C(=O)Nc1ccc(Cl)cc1`, the IC50 is > 50 µM (inactive).

In the case of `Oc1cccc2c(-c3ccc(O)c4c(O)cccc34)ccc(O)c12`, the IC50 was > 50 µM (inactive).

As for `COc1ccc(NC(=O)Cn2c(=O)n(CCCC(=O)NC3CCCC3)c(=O)c3cc(Cl)ccc32)c(OC)c1`, the IC50 is > 50 µM (inactive).

For `COC(=O)c1ccc(N2CCN(C(C)=O)CC2)c(NC(=O)COc2ccc([N+](=O)[O-])cc2)c1`, the IC50 is > 50 µM (inactive).

Take `CC(C)c1ccc(NC(=O)c2cc(-c3cccnc3)n[nH]2)cc1`: the IC50 is > 50 µM (inactive).

On to `Cc1cc(=O)n(C)c2c(O)c3c(cc12)c(C)cc(=O)n3C`, for which the IC50 was > 50 µM (inactive).

Consider `C[C@@H]1CO[C@@H]2C3=C(C(=O)C=CC3=O)[C@H]3OC(=O)[C@@H]4CCC5[C@@H]1CCC52C34` (stereo partly drawn), for which the IC50 is > 50 µM (inactive).

With `C=C/C(=C/C(=O)C[C@H](C)C[C@@H](C)CC[C@H](O)[C@H](C)C(=O)CC(O)[C@H](C)[C@@H](C)OC(=O)C[C@@H](O)C1=C(C)C(=O)OC1=O)CC` (stereo partly drawn), the IC50 is 43.1 µM.

Turning to `O=C(CCn1c(=O)c2ccccc2n(Cc2ccccc2F)c1=O)NCc1ccco1`, the IC50 is > 50 µM (inactive).

Regarding `COc1ccc(-c2nc3c(c(=O)c4ccccc4n3C)c(=O)n2Cc2ccco2)cc1`, the IC50 was 46.9 µM.

With `Cc1ccc(Cl)cc1NC(=O)Cn1c(=O)n(CCC(=O)NCc2ccco2)c(=O)c2ccccc21`, the IC50 is > 50 µM (inactive).

As for `Cn1c(=O)c2ncnnc2n(C)c1=O`, the IC50 was > 50 µM (inactive).

With `O=C1Nc2ccccc2C(=O)C1C(c1ccc(Cl)cc1)C1C(=O)Nc2ccccc2C1=O` (stereo not drawn), the IC50 is 44.8 µM.

Take `O=C(c1ccco1)N1CCC2(CC1)CC1(CO2)Nc2ccccc2-n2cccc21` (stereo not drawn): the IC50 is > 50 µM (inactive).

For the compound `C/C=C/C=C/[C@@H]1Cc2cc(O)cc(O)c2O1`, the IC50 was > 50 µM (inactive).

On to `COc1cc(OC)cc(N2C(=O)N(CC(=O)c3ccc(Br)cc3)c3ccccc3S2(=O)=O)c1`, for which the IC50 is > 50 µM (inactive).

Take `CCOC(=O)c1cc2c(ccn2-c2ccc(F)cc2)n1CC(=O)Nc1ccc2c(c1)OCCO2`: the IC50 is > 50 µM (inactive).

For `O=C1Cc2ccccc2C(=O)N1Cc1cccc(Cl)c1`, the IC50 was > 50 µM (inactive).

On to `O=c1cc(-c2ccc(O)c(O)c2)oc2cc(O[C@@H]3O[C@H](CO)[C@@H](O)[C@H](O)[C@H]3O)cc(O)c12`, for which the IC50 was 0.713 µM.

`COc1ccc(/C=C/C(=O)Nc2cccc(S(=O)(=O)Nc3ccccc3Cl)c2)c(OC)c1`: the IC50 is > 50 µM (inactive).

Regarding `Cc1ccc(NC(=O)Cn2cncc(-c3nc(-c4ccccc4)cs3)c2=O)cc1F`, the IC50 was > 50 µM (inactive).

As for `O=C(CCCc1nnc2c(=O)n(-c3cccc(F)c3)ccn12)NCc1ccc(Cl)cc1`, the IC50 is > 50 µM (inactive).

Consider `O=C(c1cnc2[nH][nH]c(=O)c2c1)c1cc(Cl)cc(Cl)c1O`, for which the IC50 is 15.1 µM.

As to `COc1ccc(-c2cc(-c3ccc(F)cc3)[nH]c(=O)c2C#N)cc1`, the IC50 was > 50 µM (inactive).

As to `COc1ccc(S(=O)(=O)N2CCc3ccccc32)cc1C(=O)Nc1ccc2[nH]c(=O)[nH]c2c1`, the IC50 is > 50 µM (inactive).

In the case of `CC1=CC(=O)C(C2=C(O)C(=O)C(C)=CC2=O)=C(O)C1=O`, the IC50 is > 50 µM (inactive).

For `Cc1ccc(Nc2nc3c(S(=O)(=O)c4ccccc4)nnn3c3ccccc23)c(C)c1`, the IC50 is 48 µM.

Regarding `Cc1cc(NC(=O)Cn2c(=O)n(Cc3ccco3)c(=O)c3ccc(C(=O)NCCc4ccccc4)cc32)n[nH]1`, the IC50 is > 50 µM (inactive).

Consider `CSC1SCC2C(=O)N(C)C(C(C)C(C)C)C(=O)OCC(NC(=O)c3cnc4ccccc4n3)C(=O)NC(C)C(=O)N(C)C1C(=O)N(C)C(C(C)C(C)C)C(=O)OCC(NC(=O)c1cnc3ccccc3n1)C(=O)NC(C)C(=O)N2C` (stereo not drawn), for which the IC50 was > 50 µM (inactive).

As for `O=C(NC1(O)C(=O)c2ccccc2C1=O)c1cccc2c1-c1ccccc1C2=O`, the IC50 was > 50 µM (inactive).

In the case of `N#Cc1cccc(NC(=O)COC(=O)c2n[nH]c3ccccc23)c1`, the IC50 was > 50 µM (inactive).

As for `COc1cc(NC(=O)Cn2c(=O)n(-c3ccc(CC(=O)NCc4ccco4)cc3)c(=O)c3ccccc32)cc(OC)c1`, the IC50 was > 50 µM (inactive).

As to `O=C(Nc1cc(F)c2nc(N3CCOCC3)ccc2c1)C1CC1`, the IC50 was > 50 µM (inactive).

Consider `CC(NC(=O)c1ccccc1)c1nc2ccccc2n1CC(=O)Nc1ccc(OC(F)(F)F)cc1` (stereo not drawn), for which the IC50 is > 50 µM (inactive).

Turning to `COc1ccc(NC(=O)Cn2cc(C(=O)c3ccc(Cl)cc3)c(=O)c3cc(F)ccc32)cc1`, the IC50 was 47 µM.

As to `Cn1nc(C(=O)N2CCC(c3ccccc3)C2)c2c1-c1ccsc1CC2` (stereo not drawn), the IC50 is > 50 µM (inactive).

Consider `O=c1c2ccccc2oc2nc(-c3cccs3)n(-c3ccccc3)c(=O)c12`, for which the IC50 was > 50 µM (inactive).

With `O=C(Nc1cccc(Br)c1)c1cc(-c2cccnc2)n[nH]1`, the IC50 is 48.7 µM.

In the case of `O=C1c2c(O)c(Cl)cc3c2[C@@]2(Oc4ccc(O)c5c4[C@]3(O2)[C@@H]2O[C@@H]2C5=O)[C@@H]2O[C@H]12`, the IC50 is 16.3 µM.

As to `O=c1c(O)c(-c2ccc(O)c(O)c2)oc2cc(O)cc(O)c12`, the IC50 was 5.22 µM.

Regarding `COc1ccc(-c2nc(Cn3nnc(C(=O)Nc4ccc(C)c(C)c4)c3N)c(C)o2)cc1`, the IC50 is > 50 µM (inactive).
